Reference: PubChem BioAssay AID328 (DTP/NCI, 2004)
Several values for one entry are separate records, joined by “and”; a condition that tells them apart may be missing. Equal entries are not always repeated. Toxic doses and inconclusive results are not listed.

System: BDF1 mice, P388 leukemia ip, median survival T/C
Assay: NCI In Vivo Anticancer Drug Screen. Data for tumor model P388 Leukemia (intraperitoneal) in B6D2F1 (BDF1) mice
Details: endpoint: median survival time, higher = longer survival
Outline: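 Survival ratio, drug arm over vehicle arm, in mice with a transplanted tumour.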

[1] = dose: 100.0 mg/kg/injection, schedule: Q01DX009 (ip), vehicle: Klucel (hydroxypropylcellulose) (HPC)
[2] = dose: 100.0 mg/kg/injection, schedule: Q04DX003 (ip), vehicle: Klucel (hydroxypropylcellulose) (HPC)
[3] = dose: 200.0 mg/kg/injection, schedule: Q04DX003 (ip), vehicle: Klucel (hydroxypropylcellulose) (HPC)
[4] = dose: 50.0 mg/kg/injection, schedule: Q01DX009 (ip), vehicle: saline with Tween-80
[5] = dose: 100.0 mg/kg/injection, schedule: Q01DX009 (ip), vehicle: saline with Tween-80
[6] = dose: 100.0 mg/kg/injection, schedule: Q04DX003 (ip), vehicle: saline with Tween-80
[7] = dose: 200.0 mg/kg/injection, schedule: Q01DX009 (ip), vehicle: saline with Tween-80
[8] = dose: 200.0 mg/kg/injection, schedule: Q04DX003 (ip), vehicle: saline with Tween-80
[9] = dose: 400.0 mg/kg/injection, schedule: Q04DX003 (ip), vehicle: Klucel (hydroxypropylcellulose) (HPC)
[10] = dose: 200.0 mg/kg/injection, schedule: Q01DX009 (ip), vehicle: Klucel (hydroxypropylcellulose) (HPC)
[11] = dose: 400.0 mg/kg/injection, schedule: Q01DX009 (ip), vehicle: Klucel (hydroxypropylcellulose) (HPC)
[12] = dose: 6.25 mg/kg/injection, schedule: Q01DX009 (ip), vehicle: saline with Tween-80
[13] = dose: 12.5 mg/kg/injection, schedule: Q01DX009 (ip), vehicle: saline with Tween-80
[14] = dose: 12.5 mg/kg/injection, schedule: Q01DX009 (ip), vehicle: water
[15] = dose: 25.0 mg/kg/injection, schedule: Q01DX009 (ip), vehicle: water
[16] = dose: 25.0 mg/kg/injection, schedule: Q04DX003 (ip), vehicle: water
[17] = dose: 50.0 mg/kg/injection, schedule: Q01DX009 (ip), vehicle: water
[18] = dose: 50.0 mg/kg/injection, schedule: Q04DX003 (ip), vehicle: water
[19] = dose: 100.0 mg/kg/injection, schedule: Q04DX003 (ip), vehicle: water
[20] = dose: 100.0 mg/kg/injection, schedule: Q01DX009 (ip), vehicle: water
[21] = dose: 200.0 mg/kg/injection, schedule: Q01DX009 (ip), vehicle: water

Cc1ccc(C)c(N2CCN(c3ccncc3N)CC2)c1
T/C (dose: 37.5 mg/kg/injection, schedule: Q04DX003 (ip), vehicle: saline with Tween-80): 113 % of control
T/C (dose: 75.0 mg/kg/injection, schedule: Q04DX003 (ip), vehicle: saline with Tween-80): 122 % of control
T/C (dose: 150.0 mg/kg/injection, schedule: Q04DX003 (ip), vehicle: saline with Tween-80): 118 % of control

OCC1(c2ccccc2)CCN(Cc2ccccc2)CC1
T/C (dose: 25.0 mg/kg/injection, schedule: Q01DX009 (ip), vehicle: Klucel (hydroxypropylcellulose) (HPC)): 107 % of control
T/C (dose: 50.0 mg/kg/injection, schedule: Q01DX009 (ip), vehicle: Klucel (hydroxypropylcellulose) (HPC)): 107 % of control
T/C [1]: 87 % of control
T/C [2]: 91 % of control
T/C [3]: 87 % of control

CC(C)(C)NCCC(O)c1cc(C(F)(F)F)nc2c(C(F)(F)F)cccc12 (stereo not given)
T/C [4]: 105 % of control
T/C [5]: 104 % of control

CC(=O)O[C@]1(C(C)=O)CC[C@H]2[C@@H]3C[C@H](Cl)C4=CC(=O)CC[C@]4(C)[C@H]3CC[C@@]21C
T/C [4]: 113 % of control
T/C [5]: 109 % of control
T/C [6]: 108 % of control
T/C [7]: 100 % of control
T/C [8]: 100 % of control

CCc1cc2c(cc1C(=O)CBr)C(C)(C)CCC2(C)C
T/C (dose: 3.12 mg/kg/injection, schedule: Q01DX009 (ip), vehicle: Klucel (hydroxypropylcellulose) (HPC)): 110 % of control
T/C (dose: 3.8 mg/kg/injection, schedule: Q04DX003 (ip), vehicle: Klucel (hydroxypropylcellulose) (HPC)): 113 % of control
T/C (dose: 5.7 mg/kg/injection, schedule: Q04DX003 (ip), vehicle: Klucel (hydroxypropylcellulose) (HPC)): 113 % of control
T/C (dose: 6.25 mg/kg/injection, schedule: Q01DX009 (ip), vehicle: Klucel (hydroxypropylcellulose) (HPC)): 105 % of control
T/C (dose: 12.5 mg/kg/injection, schedule: Q01DX009 (ip), vehicle: Klucel (hydroxypropylcellulose) (HPC)): 110 % of control
T/C (dose: 23.0 mg/kg/injection, schedule: Q04DX003 (ip), vehicle: Klucel (hydroxypropylcellulose) (HPC)): 100 % of control
T/C (dose: 52.5 mg/kg/injection, schedule: Q04DX003 (ip), vehicle: Klucel (hydroxypropylcellulose) (HPC)): 120 % of control

C=C(C)COC(N)=O
T/C [5]: 108 % of control
T/C [7]: 104 % of control
T/C (dose: 400.0 mg/kg/injection, schedule: Q01DX009 (ip), vehicle: saline with Tween-80): 87 % of control

CCn1cnc2c(=S)nc[nH]c21
T/C (dose: 15.6 mg/kg/injection, schedule: Q01DX010 (ip), vehicle: saline): 100 % of control and 115 % of control
T/C (dose: 31.3 mg/kg/injection, schedule: Q01DX010 (ip), vehicle: saline): 90 % of control and 105 % of control
T/C (dose: 62.5 mg/kg/injection, schedule: Q01DX010 (ip), vehicle: saline): 104 % of control and 115 % of control

Cc1[nH]nc(-c2ccon2)c1N=O
T/C [4]: 111 % of control
T/C [5]: 113 % of control

NS(=O)(=O)Cc1ccccc1
T/C (dose: 25.0 mg/kg/injection, schedule: Q04DX003 (ip), vehicle: saline): 100 % of control
T/C (dose: 50.0 mg/kg/injection, schedule: Q04DX003 (ip), vehicle: saline): 100 % of control
T/C (dose: 100.0 mg/kg/injection, schedule: Q04DX003 (ip), vehicle: saline): 100 % of control

O=[N+]([O-])c1cccc(C=Nc2cccc(C(F)(F)F)c2)c1
T/C (dose: 3.0 mg/kg/injection, schedule: Q01DX009 (ip), vehicle: Klucel (hydroxypropylcellulose) (HPC)): 95 % of control
T/C (dose: 6.0 mg/kg/injection, schedule: Q01DX009 (ip), vehicle: Klucel (hydroxypropylcellulose) (HPC)): 95 % of control
T/C (dose: 12.0 mg/kg/injection, schedule: Q01DX009 (ip), vehicle: Klucel (hydroxypropylcellulose) (HPC)): 100 % of control
T/C [2]: 104 % of control
T/C [3]: 95 % of control
T/C [9]: 95 % of control

O=NN(CCCl)C(=O)Nc1ccc(Cl)cc1
T/C (dose: 8.2 mg/kg/injection, schedule: Q04DX003 (ip), vehicle: saline with Tween-80): 195 % of control
T/C (dose: 12.5 mg/kg/injection, schedule: Q04DX003 (ip), vehicle: saline with Tween-80): 195 % of control
T/C (dose: 18.75 mg/kg/injection, schedule: Q04DX003 (ip), vehicle: saline with Tween-80): 200 % of control

COC(=O)C(=O)[C@@H](O)[C@H](O)[C@@H](O)CO
T/C [1]: 100 % of control
T/C [10]: 113 % of control
T/C [11]: 109 % of control

CC(=O)NC(Cc1ccc(F)cc1)C(=O)O (stereo not given)
T/C [7]: 121 % of control

S=C1N=C2c3ccccc3C2C(=S)S1 (stereo not given)
T/C [4]: 109 % of control
T/C [5]: 98 % of control
T/C (dose: 150.0 mg/kg/injection, schedule: Q01DX009 (ip), vehicle: saline with Tween-80): 94 % of control

Nc1nc(N)c2c(Cl)c(CNc3ccc(Cl)c(Cl)c3)ccc2n1
T/C [12]: 154 % of control
T/C (dose: 6.25 mg/kg/injection, schedule: Q01DX009 (ip), vehicle: water): 123 % of control
T/C [13]: 169 % of control
T/C [14]: 179 % of control
T/C [15]: 203 % of control
T/C [16]: 116 % of control
T/C [17]: 88 % of control
T/C [18]: 169 % of control
T/C [19]: 153 % of control and 173 % of control
T/C (dose: 300.0 mg/kg/injection, schedule: Q04DX003 (ip), vehicle: water): 86 % of control

O=C(O)C1=NNC(C(=O)O)=NN1
T/C (dose: 50.0 mg/kg/injection, schedule: Q01DX009 (ip), vehicle: saline): 98 % of control
T/C (dose: 100.0 mg/kg/injection, schedule: Q01DX009 (ip), vehicle: saline): 100 % of control
T/C (dose: 200.0 mg/kg/injection, schedule: Q01DX009 (ip), vehicle: saline): 98 % of control

CCOC(=O)CSc1c([N+](=O)[O-])c(C)nn1C
T/C (dose: 3.12 mg/kg/injection, schedule: Q04DX003 (ip), vehicle: water): 110 % of control
T/C (dose: 6.25 mg/kg/injection, schedule: Q04DX003 (ip), vehicle: water): 100 % of control and 106 % of control
T/C (dose: 12.5 mg/kg/injection, schedule: Q04DX003 (ip), vehicle: water): 92 % of control and 104 % of control
T/C [15]: 93 % of control
T/C [16]: 88 % of control and 100 % of control
T/C [17]: 90 % of control
T/C [18]: 97 % of control and 100 % of control and 113 % of control
T/C [20]: 93 % of control
T/C [19]: 101 % of control and 104 % of control
T/C [21]: 101 % of control
T/C (dose: 200.0 mg/kg/injection, schedule: Q04DX003 (ip), vehicle: water): 109 % of control
T/C (dose: 400.0 mg/kg/injection, schedule: Q01DX009 (ip), vehicle: water): 101 % of control
T/C (dose: 400.0 mg/kg/injection, schedule: Q04DX003 (ip), vehicle: water): 103 % of control

OCC1C(CO)C2(Cl)C(Cl)=C(Cl)C1(Cl)C2(Cl)Cl (stereo not given)
T/C [1]: 100 % of control
T/C [2]: 100 % of control
T/C [10]: 118 % of control
T/C [3]: 95 % of control
T/C [11]: 100 % of control
T/C [9]: 109 % of control

CC[NH-].CC[NH-].[I][Pt+2][I]
T/C (dose: 3.12 mg/kg/injection, schedule: Q01DX009 (ip), vehicle: saline): 190 % of control
T/C (dose: 6.25 mg/kg/injection, schedule: Q01DX009 (ip), vehicle: saline): 185 % of control

O=C1N(Cl)C(=O)C(c2ccc(C(F)(F)F)cc2)(c2ccc(C(F)(F)F)cc2)N1Cl
T/C (dose: 1.56 mg/kg/injection, schedule: Q01DX009 (ip), vehicle: saline with Tween-80): 104 % of control
T/C (dose: 3.12 mg/kg/injection, schedule: Q01DX009 (ip), vehicle: saline with Tween-80): 100 % of control
T/C [12]: 100 % of control
T/C [13]: 109 % of control
T/C [6]: 100 % of control
T/C [8]: 109 % of control

OCc1nccn1Cc1ccccc1
T/C [14]: 108 % of control
T/C [15]: 99 % of control
T/C [17]: 101 % of control
T/C [20]: 108 % of control
T/C [21]: 101 % of control
T/C (dose: 300.0 mg/kg/injection, schedule: Q01DX009 (ip), vehicle: water): 114 % of control
